The procedure of series [1]: Mixtures of MCT oil, egg phospholipids, ethanol, and SnEt2 were incubated with different bile salts, all at 4.6 mM^1, under the same conditions described above in Example 1.
Series [2] has as its system transplantable, FANFT-induced, urothelial tumors. Description: photodynamic treatment of transplantable FANFT-induced urothelial tumors with SnEt2 emulsion and red light (Example 4). In kind it is in vivo, Fischer 344 rats. As to the method: (§1) Fischer 344 rats, engrafted with transplantable, chemically-induced (FANFT) urothelial tumors, were treated with tin ethyl etiopurpurin (SnEt2) and red light (660 nm). SnEt2 was administered as a bolus injection via lateral tail vein, using the emulsion described by the present invention. Tumor response was assessed in groups of nine animals injected with one of four doses of drug and exposed to one of three different doses of light, as summarized in FIG. 1. Control animals received emulsion vehicle without drug. Animals were monitored for tumor re-growth, tissue changes at treatment site, and general health three times per week for a period of 30 days after light treatment.
By determining the number of tumor-free rats 30 days after each treatment, tumor dose-response curves for drug and light were generated, shown in FIG. 1.

A short description of series [3]: general health / adverse events after drug-emulsion treatment (Example 4). In kind it is in vivo, Fischer 344 rats. Conditions: i.v. bolus in emulsion plus red light, 30 days. The procedure: as §1
Series [4] is described as follows: SnEt2 drug solubility in MCT oil with excipient combinations (Example 1). To be noted: invention emulsion.
Method: After incubating for 30 minutes at 55° C., the tubes stand overnight at room temperature (19°-22° C). The tubes are centrifuged to remove bulk precipitates, and supernatants are filtered through 0.45 μm nylon membrane to remove any undissolved drug. Aliquots of filtrate are then diluted in chloroform:isopropyl alcohol (1:1) for spectrophotometric determination of drug concentration (absorbance at 662 nm). Reference standards are prepared with known concentrations of SnEt2 in the same solvent.
For series [5] the following is noted: pH 8.0. As to the method: In particular, net electronegative charge (Zeta potential) on the emulsified oil droplets is measured by changes in electrophoretic mobility at pH 8.0 (Malvern Zetasizer 2c). […] A relationship between Zeta potential and physical stability of colloidal systems has been documented.

Turning to `CCOC(=O)C1=Cc2c3nc(cc4nc(cc5[n-]c(cc6[n-]c2c(C)c6CC)c(C)c5CC)C(C)=C4CC)[C@@H](C)[C@]13CC.[Cl-].[Cl-].[Sn]` (racemic) [SnEt2, Tin ethyl etiopurpurin], in series [1], the “SnEt2 Concentration” value was 1.26 mg/gm Oil and the “SnEt2 Concentration Normalized” value is 1.00. Besides, in series [2] (four drug doses, three light doses, 30 days), the “dose and light response by the tumor” value was “A dose and light response by the tumor was demonstrated”. In series [2] (i.v. bolus in emulsion, red laser light 660 nm, 30 days after treatment), the tumor treatment outcome is given as “effective in the treatment”. In series [3], the adverse clinical events entry is “No adverse clinical events were observed” and the “deaths attributable to drug-emulsion treatment” value is “no deaths occurred”. Besides, in series [4], the “SnEt2 concentration delivered by the present invention relative to 0.08 mg/ml” value was “over ten times”.
As for `C[C@H](CCC(=O)O)[C@H]1CC[C@H]2[C@@H]3[C@H](O)C[C@@H]4C[C@H](O)CC[C@]4(C)[C@H]3C[C@H](O)[C@]12C` [sodium cholate], the “effect on Zeta potential of phospholipid-stabilized emulsions” value in series [5] is given as “increases the Zeta potential”.

The values are drawn from patent publication US5616342A, “Emulsioin suitable for administering a poorly water-soluble photosensitizing compound and use thereof” (PDT, Inc., priority 1995, dated 1997).
